Test results reported in a melting point compilation (Tetko et al.; mined from patent text by program, amines drawn as free bases though some values may be those of a salt).

Row | SMILES | melting point [°C]
1 | COc1cccc(-c2nc3n(n2)Cc2cc(OC)ccc2-3)c1 | 166 to 167
2 | COc1ccc(-c2nc(C)c(C)s2)cc1 | 166 to 170
3 | COc1ccc2c(O)c(C(C)C)cc(Br)c2c1 | 81.5 to 83.5
4 | CNC(=O)Nc1snc(S(C)(=O)=O)c1C#N | 275
5 | C=CCc1cc2cc(CC=C(C)C)c(=O)[nH]c2c(CC=C)c1O | 241 to 244
6 | CCCCCC1=CCC(c2cc(F)cc(F)c2)C=C1 (stereo not drawn) | 31
7 | O=C(Nc1nn(-c2ccccc2)cc1C(=O)O)OCc1cc2cc(-c3ccccc3)ccc2o1 | 221
8 | CCCn1cnc2c1c(=O)n(CCCC(C)(O)C#CCN1CCN(C)CC1)c(=O)n2C (stereo not drawn) | 168
9 | CC(C)(C)OC(=O)NCCCC(c1cc(F)ccc1F)S(=O)(=O)c1ccc(Cl)cc1 (stereo not drawn) | 119 to 120
10 | Cc1cccc(CO)c1CNc1cc(Br)cc2c1nc(C)n2C | 215 to 216
11 | COc1cnc(Cl)nc1NS(=O)(=O)c1cccc(Cl)c1Cl | 244 to 245
12 | CN1CCC(C(=O)N2CCC(c3[nH]nc4c3C(=O)c3c(NC(=O)NN5CCOCC5)cccc3-4)CC2)CC1 | 148 to 150
13 | COc1cccc(CC(O)C2CCNCC2)c1OC (stereo not drawn) | 82 to 84
14 | COc1c(Cl)nc(SC)nc1NN | 118 to 119
15 | Cn1cc(O)c(=O)c2cccc(F)c21 | 248
16 | CS(=O)(=O)c1ccc(-c2c(-c3ccccc3)noc2C(F)F)cc1 | 126 to 128
17 | Cc1nc2cc(S(=O)(=O)n3c(COC(C)(C)C(=O)O)cc4cc(Cl)ccc43)ccc2s1 | 134 to 136
18 | O=C(O)CCCCCCC1C(=O)CC(=O)C1=O (stereo not drawn) | 102 to 104
19 | CC(C)(C)OC(=O)N[C@@]1(C(=O)OC(C)(C)C)C[C@@H](F)[C@H]2[C@H](C(=O)OC(C)(C)C)[C@H]21 | 140 to 143
20 | OCCOc1ccc(I)cc1 | 76 to 77
21 | CCOc1ccc(OC(CCC(=O)O)C2(O)CN3CCC2CC3)cc1 (stereo not drawn) | 75 to 77
22 | CC(C)=CCOc1ccc2c(C)cc(=O)oc2c1C(=O)C=Cc1cccnc1 | 156 to 157
23 | CC1(C)CC(=O)C2=C(C1)NC1=C(C(=O)CC(C)(C)C1)C2c1ccc(C(F)(F)F)c(F)c1 | 296 to 300
24 | O=C1c2c(Cl)cccc2-n2cnc(CO)c2C2CCCN12 (stereo not drawn) | 303 to 305
25 | CC(C)C[C@@H](CO)NC(=O)[C@H](Cc1c[nH]cn1)NC(=O)[C@H](CSSc1ncccc1[N+](=O)[O-])NC(=O)OC(C)(C)C | 185 to 188
26 | O=C1CCN(C(=O)OCc2ccc([N+](=O)[O-])cc2)CC1 | 123 to 124

Row | SMILES | melting point [°C]
27 | OC(CNc1ccnc2ccccc12)c1ccccc1 (stereo not drawn) | 289 to 290
28 | CC(=O)Oc1cc(S(=O)(=O)Oc2ccc(C(=O)c3c(Cc4ccccc4)oc(C)c3C)cc2C2CCCC2)ccc1C(=O)O | 55 to 90
29 | CCSC1=NCC(=O)N1c1cc(Cl)ccc1C | 137 to 139
30 | CCOC(=O)C(C#N)=CNc1ccc(C)cn1 | 170 to 172
31 | Cc1ccc(/C=C/c2ccc3nc(C(=O)N[C@@H](Cc4ccc(OCc5ccccc5)cc4)C(=O)O)cn3c2)cc1 | 266 to 267
32 | CCOC(=O)C(=O)NC1N=C2C(=Cc3ccccc32)S1 (stereo not drawn) | 226 to 228
33 | O=C(O)C1CCCC2CSc3ccccc3C21 (stereo not drawn) | 200 to 203
34 | Fc1ccc(/C=C/c2nc(COc3cccc(CCCn4ccnn4)c3)co2)c(F)c1 | 89 to 90
35 | CCOC(=O)C1=C(C)NC(c2cscn2)=NC1c1ccc(F)cc1Cl (stereo not drawn) | 140 to 142
36 | CCCOc1ccc(/C=C/C(=O)O)cc1-c1nc2c(c(C)nn2CCC)c(=O)[nH]1 | 231 to 232
37 | COc1ccc2c(c1)CCC1C2CCC2(C)C(=NNS(=O)(=O)c3ccccc3)CCC12 (stereo not drawn) | 183 to 185
38 | O=C1C(=O)N2c3ccccc3Sc3cccc1c32 | 203 to 206
39 | O=C1OC(=O)C2CC(=C(F)F)CC12 (stereo not drawn) | 140 to 145
40 | CSc1ccc(-c2cc(-c3nc4ccccc4c(=O)n3-c3ccc(C)cc3)sc2N2CCOCC2)cc1 | 238 to 240
41 | Cc1c[nH]c(=O)n(C(=O)c2ccccc2)c1=O | 178 to 180
42 | CC1(C)NC(=O)N(c2cc(C#N)c(C#N)c(C(F)(F)F)c2)C1=O | 159 to 160
43 | CCn1c(=O)c2c(nc(/C=C/c3cc(OC)c(OC(=O)c4ccccc4)c(OC)c3)n2C)n(CC)c1=O | 196
44 | CCCCN(CC)c1nc(C)[nH]c2c(-c3ccc(Cl)cc3Cl)nc(C)c1-2 | 94 to 95
45 | Cc1cccc(Cl)c1NC1=NCCN1 | 112 to 114
46 | C=CC1(O)CN2CCC1CC2 (stereo not drawn) | 76 to 80
47 | CC(=O)c1cc(N2CCCC2)ccc1NC(=O)c1cccc2c1OCO2 | 139 to 141
48 | CCCc1nc2c(c(C)c(C)n3nnnc23)n1CC(C)(C)NC(C)=O | 237 to 240
49 | CCCCCCCCCCCCCCCCCC#CC(C(=O)OCC)C(=O)OCC | 33 to 34
50 | Cn1ccn(Cc2ccc([N+](=O)[O-])cc2)c1=S | 162 to 168
51 | CSc1ccc(C(=N)Nc2ccc(C)c(C)c2)cc1 | 111 to 113

Continued, values first:

Row | melting point [°C] | SMILES
52 | 145 | CCC1=NC2(O)c3cc(-c4ccc(C(F)(F)F)cc4)ccc3CC2S1 (stereo not drawn)
53 | 145 to 147 | COc1cc2c(cc1OC)N(C(C)=O)CC(N(C)C)C2 (stereo not drawn)
54 | 100 to 101 | CCCNC(=O)Nc1nn(Cc2ccccc2)cc1C(=O)OCC
55 | 138 to 139 | CC(C)(C)OC(=O)[C@@H]1CNC(=O)N1C(=O)OCc1ccccc1
56 | 80 to 83 | Cc1ccc(N(C(=O)CCl)c2c(F)cccc2Cl)cc1
57 | 198 to 200 | CC(=O)NC[C@H]1CN(c2cc(F)c(N3CCC(n4nnc(N5CCN(C#N)CC5)n4)CC3)c(F)c2)C(=O)O1
58 | 157 to 158 | c1cc(-c2nccs2)cc(-n2cnc3cc(-c4ccon4)ccc32)c1
59 | 122 to 123 | CCCC[C@H](NC(=O)[C@H](CC(C)C)NC(=O)c1ccc(C)cc1)C(=O)CSCc1ccco1
60 | 118 to 121 | CCCCCC(CC(=O)Nc1cc(C(N)=O)ccc1C(C)(C)C)c1cccc(OC)c1O (stereo not drawn)
61 | 304 to 306 | COc1cc(C2=Nc3ccc(N4CCCC4)cc3C(=O)C2)ccc1OCc1ccccc1
62 | 146 to 147 | Cc1c(Cc2cccc(C(F)(F)F)c2)sc2c(-c3cc(F)cc(C(N)=O)c3)cccc12
63 | 143 to 144 | CCOC(=O)CNc1ncccc1NC(=O)c1cccc(Cl)c1
64 | 133 to 137 | CN=C(C)c1cc(Oc2ccc(C(F)(F)F)cc2Cl)ccc1[N+](=O)[O-]
65 | 111 to 114 | c1ccc(CN2CCC(n3cnnc3-c3ccccc3)CC2)cc1
66 | 184 to 185 | O=C(CC12CC3CC(CC(C3)C1)C2)Nc1ccc2[nH]ccc2c1
67 | 108 to 110 | COc1cc(N)c2nccc(C)c2c1OC
68 | 69.5 to 70 | CC(=O)Oc1ccc(CCc2cccc(OC(C)=O)c2)cc1
69 | 253 | CCCOC(=O)c1ccc2c3cccc4cccc(c5ccc(C(=O)OCCC)c1c25)c43
70 | 106 to 108 | CC1(c2ccccc2)OC(C=Cc2cccnc2)=CC1=O (stereo not drawn)
71 | 45 | CCOC(=O)C(Oc1ccccc1)c1ccccc1 (stereo not drawn)
72 | 169 to 171 | COc1cc(-c2ncn(-c3cc(OC)c(OC)c(OC)c3)c2-c2ccc(N(C)C)cc2)cc(OC)c1OC
73 | 132 to 133 | O=C(O)Cc1ccc(Cc2nc3c(F)c(F)cc(F)c3s2)s1
